Experimental data reported in PMC11722180, “Structure–Activity Relationship Studies of Tetracyclic Pyrrolocarbazoles Inhibiting Heterotetrameric Protein Kinase CK2” (Molecules, 2024).
Where a name gives a salt, the structure may show the parent alone. Values belong to the compound of their own block, whether it stands above or below them.

What was measured:
CK2 = settings: cited from earlier work; for IC50: ATP competitive, read-out: CK2 inhibition IC50
[1] = test system: human prostate tumor cell line; design: method as in PMID 39698287; settings: cited from earlier work
CK2α/CK2β interaction = settings: read-out: Inhibition of CK2α/CK2β interaction IC50; cited from earlier work
CK2α subunit = test system: CK2α subunit; design: method as in PMID 18553057; settings: read-out: Inhibition of the kinase activity of the CK2α subunit IC50; cited from earlier work
[2] = biological target: T1, CK2α/CK2β interaction (human CK2α1–335, human CK2β1–193) (Homo sapiens, UniProt P68400); experiment: Microscale thermophoresis (MST) assay of the CK2α/CK2β subunit interaction; type: binding
T1 construct: human CK2α^1–335; made in house
T1 sequence (P68400 1-335): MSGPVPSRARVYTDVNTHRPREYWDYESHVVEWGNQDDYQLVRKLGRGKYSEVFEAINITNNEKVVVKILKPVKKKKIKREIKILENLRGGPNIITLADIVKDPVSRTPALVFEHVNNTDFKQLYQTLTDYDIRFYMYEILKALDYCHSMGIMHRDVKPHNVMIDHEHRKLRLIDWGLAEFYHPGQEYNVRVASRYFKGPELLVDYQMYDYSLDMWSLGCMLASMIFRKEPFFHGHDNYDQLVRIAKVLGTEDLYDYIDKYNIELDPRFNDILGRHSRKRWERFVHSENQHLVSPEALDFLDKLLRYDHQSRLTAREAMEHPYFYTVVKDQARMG
Description: A microscale thermophoresis (MST) assay was used to determine the interaction of the CK2α and CK2β subunits. In this assay, a constant concentration of the fluorescently labeled CK2β subunit was added to increasing concentrations of the CK2α subunit and the thermophoretic shift was recorded, respectively. […] The same experiment was performed in the presence of 20, 50, or 100 µM of the test compounds (see Table 1). An increased KD′ value in the presence of the test compounds was evaluated as the inhibition of the association of the CK2α and CK2β subunits. The increased KD′ value was then transformed together with the employed concentration of the test compound into the Ki value for the inhibition of the CK2α/CK2β association (formula see Supporting Information).
The compounds were investigated at a final concentration of 20, 50, or 100 µM. […] Data analysis and statistical evaluation were conducted with GraphPad Prism v.6 for Windows (GraphPad Software, La Jolla, CA, USA, www.graphpad.com).

CK2 holoenzyme (CK2α2β2) = biological target: T2, CK2 holoenzyme (CK2α2β2) (Homo sapiens, UniProt P68400); experiment: Capillary electrophoresis assay, inhibition of the CK2 holoenzyme kinase activity; type: biochemical
T2 construct: made in house; host or cells: E. coli BL21(DE3)
T2 sequence (P68400 whole entry): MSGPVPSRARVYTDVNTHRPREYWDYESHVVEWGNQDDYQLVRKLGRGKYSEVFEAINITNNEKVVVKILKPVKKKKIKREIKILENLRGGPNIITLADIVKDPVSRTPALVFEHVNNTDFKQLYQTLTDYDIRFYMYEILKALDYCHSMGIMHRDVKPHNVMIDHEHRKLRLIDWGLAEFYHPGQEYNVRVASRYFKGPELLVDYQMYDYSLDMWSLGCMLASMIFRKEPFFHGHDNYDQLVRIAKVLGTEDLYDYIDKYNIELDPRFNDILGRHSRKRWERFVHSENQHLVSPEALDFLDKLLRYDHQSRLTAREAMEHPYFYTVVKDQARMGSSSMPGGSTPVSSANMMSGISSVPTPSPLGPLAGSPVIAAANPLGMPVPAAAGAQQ
Description: The inhibition of the catalytic activity of the CK2 holoenzyme (CK2α2β2) was determined in an enzyme assay. In brief, the CK2 holoenzyme was incubated with the decapeptide […] and ATP. The amount of phosphorylated peptide (Ser7) was recorded by capillary electrophoresis (CE).
The capillary electrophoresis assay to determine the inhibition of the CK2 holoenzyme (CK2α2β2) was performed as described in refs. [40, 46]. The CK2 holoenzyme was recombinantly expressed in E. coli BL21(DE3) and purified according to the protocol by Grankowski et al.. Enzymatic activity was determined in the presence of 1 µg of CK2α2β2, 60 µM of ATP, and 114 µM of the substrate peptide […]. The assay buffer contained 60 mM NaCl and 10 mM MgCl2. Inhibition was determined in three independent experiments at a compound concentration of 10 µM, and the mean value and the standard deviation (SD) were calculated.

Structure (SMILES): Cc1ccc(N/C=C2\C(=O)CCc3c2oc2c(Cl)c(Cl)c(O)cc32)cc1 [2a]
IC50 (CK2): 0.029 µM

Structure (SMILES): O=C1CCc2c(oc3cc(Br)c(O)c(Br)c23)/C1=C/Nc1ccccc1 [2b]
Antiproliferative activity [1]: showed antiproliferative activity
IC50 (CK2): 0.0058 µM

Structure (SMILES): COc1cc([C@H]2c3c([nH]c4ccccc34)[C@@H](C(=O)N3C(=O)OC[C@@H]3Cc3ccccc3)[C@H]3C(=O)OC(=O)[C@@H]23)cc(OC)c1OC [(+)-4 (W16)]
IC50 (CK2α subunit): 20 µM

Kd [2]: 0.101 ± 0.004 µM
Ki ([2]; MST, global analysis, KD′ = KD [1 + (ccompound/Ki)], n.s. = KD′ not significantly different from KD, read-out: Inhibition of CK2α/CK2β Interaction Ki): 6.1 µM
IC50 (CK2 holoenzyme (CK2α2β2); CE assay, 60 µM ATP, 114 µM peptide […]): 2.5 µM
inhibition at 10 µM (CK2 holoenzyme (CK2α2β2); first screening, test compound concentration 10 µM, read-out: Enzyme inhibition of CK2 holoenzyme): > 50%
Structure (SMILES): COC(=O)[C@H](Cc1c[nH]cn1)NC(=O)[C@H]1c2[nH]c3ccccc3c2[C@H](c2cc(OC)c(OC)c(OC)c2)[C@@H]2C(=O)NC(=O)[C@@H]21 [(+)-20a, Methyl N-{[(3aS,4R,10S,10aS)-1,3-dioxo-10-(3,4,5-trimethoxyphenyl)-1,2,3,3a,4,5,10,10a-octahydropyrrolo[3,4-b]carbazol-4-yl]carbonyl}-(S)-histidinate∙HCl]

Kd [2]: 0.029 ± 0.007 µM
Inhibition of CK2α/CK2β Interaction Ki ([2]; MST, global analysis, KD′ = KD [1 + (ccompound/Ki)], n.s. = KD′ not significantly different from KD): n.s.
Structure (SMILES): COC(=O)[C@H](Cc1c[nH]cn1)NC(=O)[C@@H]1c2[nH]c3ccccc3c2[C@@H](c2cc(OC)c(OC)c(OC)c2)[C@H]2C(=O)NC(=O)[C@H]21 [(–)-20b, methyl N-{[(3aR,4S,10R,10aR)-1,3-dioxo-10-(3,4,5-trimethoxyphenyl)-1,2,3,3a,4,5,10,10a-octahydropyrrolo[3,4-b]carbazol-4-yl]carbonyl}-(S)-histidinate]

Structure (SMILES): NCc1cc(Cl)cc(-c2cccc3[nH]ccc23)c1 [CAM187]
Effect on kinase activity of CK2 (CK2): not significantly affected
